Experimental data reported in patent US9216999B2, “Substituted pyrrolo[2,3-h][1,6]naphthyridines and compositions thereof as JAK inhibitors” (priority 2011, dated 2015).

What was measured:
Type in all cases: biochemical
Conditions in all cases: ATP 100 μM; Table^a 154
[1] = biological target: Tyk2 (Homo sapiens (Human), UniProt P29597); test: Enzyme assay (Assay Example^a 1), Tyk2
[2] = biological target: JAK1 (Homo sapiens (Human), UniProt P23458); test: Enzyme assay (Assay Example^a 1), JAK1
[3] = biological target: JAK3 (Homo sapiens (Human), UniProt P52333); test: Enzyme assay (Assay Example^a 1), JAK3
JAK3, sequence (P52333 whole entry): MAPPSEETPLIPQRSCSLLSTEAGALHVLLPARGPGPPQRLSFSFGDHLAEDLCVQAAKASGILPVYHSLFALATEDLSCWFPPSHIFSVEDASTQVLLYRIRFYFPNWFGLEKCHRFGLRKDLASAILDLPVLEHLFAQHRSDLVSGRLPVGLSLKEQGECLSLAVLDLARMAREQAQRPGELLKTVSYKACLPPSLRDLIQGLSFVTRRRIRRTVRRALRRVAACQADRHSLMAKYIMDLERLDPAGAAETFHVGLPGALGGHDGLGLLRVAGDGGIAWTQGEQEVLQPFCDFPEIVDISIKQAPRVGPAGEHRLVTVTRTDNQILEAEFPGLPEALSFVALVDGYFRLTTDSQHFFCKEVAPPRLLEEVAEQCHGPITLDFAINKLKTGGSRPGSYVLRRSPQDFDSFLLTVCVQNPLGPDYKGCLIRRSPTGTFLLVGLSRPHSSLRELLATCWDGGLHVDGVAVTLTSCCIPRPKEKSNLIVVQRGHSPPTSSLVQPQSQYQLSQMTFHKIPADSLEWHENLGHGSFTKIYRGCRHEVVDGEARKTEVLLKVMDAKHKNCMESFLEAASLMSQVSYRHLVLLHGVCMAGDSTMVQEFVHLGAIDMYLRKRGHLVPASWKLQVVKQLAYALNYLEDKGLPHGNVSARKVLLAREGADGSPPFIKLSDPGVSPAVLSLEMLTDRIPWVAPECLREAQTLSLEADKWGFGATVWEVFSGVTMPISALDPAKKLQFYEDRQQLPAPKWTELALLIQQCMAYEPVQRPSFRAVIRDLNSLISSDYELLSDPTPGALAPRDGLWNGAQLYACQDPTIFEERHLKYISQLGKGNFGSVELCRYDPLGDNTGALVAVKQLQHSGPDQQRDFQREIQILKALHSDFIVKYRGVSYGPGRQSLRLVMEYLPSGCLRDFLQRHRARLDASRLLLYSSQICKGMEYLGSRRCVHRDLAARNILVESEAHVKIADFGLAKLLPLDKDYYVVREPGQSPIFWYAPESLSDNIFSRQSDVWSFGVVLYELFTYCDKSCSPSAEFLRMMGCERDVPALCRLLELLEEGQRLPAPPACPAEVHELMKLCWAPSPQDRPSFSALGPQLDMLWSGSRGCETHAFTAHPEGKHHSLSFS

[4] = biological target: JAK2 (Homo sapiens (Human), UniProt O60674); test: Enzyme assay (Assay Example^a 1), JAK2

Tyk2, sequence (P29597 whole entry): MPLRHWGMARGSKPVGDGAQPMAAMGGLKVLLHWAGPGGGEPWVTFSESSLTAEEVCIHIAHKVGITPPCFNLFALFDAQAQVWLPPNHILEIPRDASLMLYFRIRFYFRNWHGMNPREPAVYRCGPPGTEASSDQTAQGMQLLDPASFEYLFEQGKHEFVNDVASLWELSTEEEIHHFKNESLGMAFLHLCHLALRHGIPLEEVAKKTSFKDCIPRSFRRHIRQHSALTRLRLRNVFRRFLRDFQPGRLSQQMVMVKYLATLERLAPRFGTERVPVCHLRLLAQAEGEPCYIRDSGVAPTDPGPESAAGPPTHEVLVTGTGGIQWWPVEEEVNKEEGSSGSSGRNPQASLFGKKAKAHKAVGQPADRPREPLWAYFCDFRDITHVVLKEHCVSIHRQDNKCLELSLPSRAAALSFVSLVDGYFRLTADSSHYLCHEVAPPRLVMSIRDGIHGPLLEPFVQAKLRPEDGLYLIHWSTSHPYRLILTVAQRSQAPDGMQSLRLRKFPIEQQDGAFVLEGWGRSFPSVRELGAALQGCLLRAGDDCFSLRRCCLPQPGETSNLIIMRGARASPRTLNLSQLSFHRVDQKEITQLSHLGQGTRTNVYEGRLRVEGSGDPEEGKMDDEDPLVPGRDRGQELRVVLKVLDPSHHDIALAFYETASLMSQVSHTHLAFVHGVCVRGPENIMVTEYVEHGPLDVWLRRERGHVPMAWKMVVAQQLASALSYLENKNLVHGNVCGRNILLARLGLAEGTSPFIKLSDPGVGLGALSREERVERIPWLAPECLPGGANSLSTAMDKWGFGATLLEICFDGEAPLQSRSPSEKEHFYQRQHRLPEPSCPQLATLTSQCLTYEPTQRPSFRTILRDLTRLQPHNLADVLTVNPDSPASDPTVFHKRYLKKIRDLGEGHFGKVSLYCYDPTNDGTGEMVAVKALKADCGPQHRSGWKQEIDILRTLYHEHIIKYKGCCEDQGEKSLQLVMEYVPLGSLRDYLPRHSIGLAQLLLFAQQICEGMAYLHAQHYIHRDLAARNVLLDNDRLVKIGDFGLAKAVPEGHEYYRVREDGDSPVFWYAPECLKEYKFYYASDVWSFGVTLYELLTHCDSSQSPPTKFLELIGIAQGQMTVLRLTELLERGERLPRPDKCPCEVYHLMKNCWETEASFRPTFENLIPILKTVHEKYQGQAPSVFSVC

## Fc1cc(Cl)ccc1CN1CCC(c2nnn3cnc4[nH]ccc4c23)CC1 [compound 158]
[1]
  IC50: 0.097 µM
[2]
  IC50: 0.0007 µM
[3]
  IC50: 0.059 µM
[4]
  IC50: 0.0044 µM

## Fc1cc(CN2CCC(c3nnn4cnc5[nH]ccc5c34)CC2)ccc1Cl [compound 159]
[1]
  IC50: 0.3 µM
[2]
  IC50: 0.0016 µM
[3]
  IC50: 0.08 µM
[4]
  IC50: 0.011 µM

## Clc1cc(CN2CCC(c3nnn4cnc5[nH]ccc5c34)CC2)ccn1 [compound 160]
[1]
  IC50: 0.26 µM
[2]
  IC50: 0.0053 µM
[3]
  IC50: 0.35 µM
[4]
  IC50: 0.021 µM

## Fc1cnccc1CN1CCC(c2nnn3cnc4[nH]ccc4c23)CC1 [compound 161, 1-{1-[(3-fluoropyridin-4-yl)methyl]piperidin-4-yl}-7H-pyrrolo[3,2-e][1,2,3]triazolo[1,5-c]pyrimidine]
[1]
  IC50: 0.14 µM
[2]
  IC50: 0.0034 µM
[3]
  IC50: 0.31 µM
[4]
  IC50: 0.011 µM

## Fc1ccc(CN2CCC(c3nnn4cnc5[nH]ccc5c34)CC2)nc1 [compound 162, 1-{1-[(5-fluoropyridin-2-yl)methyl]piperidin-4-yl}-7H-pyrrolo[3,2-e][1,2,3]triazolo[1,5-c]pyrimidine]
[1]
  IC50: > 1 µM
[2]
  IC50: 0.032 µM
[3]
  IC50: 0.68 µM
[4]
  IC50: 0.2 µM

## Clc1cnccc1CN1CCC(c2nnn3cnc4[nH]ccc4c23)CC1 [compound 163, 1-{1-[(3-chloropyridin-4-yl)methyl]piperidin-4-yl}-7H-pyrrolo[3,2-e][1,2,3]triazolo[1,5-c]pyrimidine]
[1]
  IC50: 0.31 µM
[2]
  IC50: 0.01 µM
[3]
  IC50: 0.41 µM
[4]
  IC50: 0.034 µM

## Fc1ccc(CN2CCC(c3nnn4cnc5[nH]ccc5c34)CC2)c(F)c1 [compound 164, 1-[1-(2,4-difluorobenzyl)piperidin-4-yl]-7H-pyrrolo[3,2-e][1,2,3]triazolo[1,5-c]pyrimidine]
[1]
  IC50: 0.29 µM
[2]
  IC50: 0.0058 µM
[3]
  IC50: 0.23 µM
[4]
  IC50: 0.03 µM

## Fc1ccc(CN2CCC(c3nnn4cnc5[nH]ccc5c34)CC2)c(Cl)c1 [compound 165, 1-[1-(2-chloro-4-fluorobenzyl)piperidin-4-yl]-7H-pyrrolo[3,2-e][1,2,3]triazolo[1,5-c]pyrimidine]
[1]
  IC50: 0.34 µM
[2]
  IC50: 0.0044 µM
[3]
  IC50: 0.1 µM
[4]
  IC50: 0.02 µM

## Fc1ccc(CN2CCC(c3nnn4cnc5[nH]ccc5c34)CC2)cc1F [compound 166, 1-[1-(3,4-difluorobenzyl)piperidin-4-yl]-7H-pyrrolo[3,2-e][1,2,3]triazolo[1,5-c]pyrimidine]
[1]
  IC50: 0.49 µM
[2]
  IC50: 0.0053 µM
[3]
  IC50: 0.17 µM
[4]
  IC50: 0.023 µM

## Fc1cc(CN2CCC(c3nnn4cnc5[nH]ccc5c34)CC2)ccc1C(F)(F)F [compound 167, 1-{1-[3-fluoro-4-(trifluoromethyl)benzyl]piperidin-4-yl}-7H-pyrrolo[3,2-e][1,2,3]triazolo[1,5-c]pyrimidine]
[1]
  IC50: 0.98 µM
[2]
  IC50: 0.0031 µM
[3]
  IC50: 0.17 µM
[4]
  IC50: 0.03 µM

## OCCOc1ccc(CN2CCC(c3nnn4cnc5[nH]ccc5c34)CC2)cc1 [compound 168, 2-(4-{[4-(7H-pyrrolo[3,2-e][1,2,3]triazolo[1,5-c]pyrimidin-1-yl)piperidin-1-yl]methyl}phenoxy)ethanol]
[1]
  IC50: > 1 µM
[2]
  IC50: 0.084 µM
[3]
  IC50: > 1 µM
[4]
  IC50: 0.71 µM

## FC(F)C(F)(F)Oc1ccc(CN2CCC(c3nnn4cnc5[nH]ccc5c34)CC2)cc1 [compound 169, 1-{1-[4-(1,1,2,2-tetrafluoroethoxy)benzyl]piperidin-4-yl}-7H-pyrrolo[3,2-e][1,2,3]triazolo[1,5-c]pyrimidine]
[1]
  IC50: > 1 µM
[2]
  IC50: 0.005 µM
[3]
  IC50: 0.58 µM
[4]
  IC50: 0.052 µM

## CC(C)(C)OC(=O)NCCN1CCC(c2nnn3cnc4[nH]ccc4c23)CC1 [compound 171, tert-butyl {2-[4-(7H-pyrrolo[3,2-e][1,2,3]triazolo[1,5-c]pyrimidin-1-yl)piperidin-1-yl]ethyl}carbamate]
[1]
  IC50: > 1 µM
[2]
  IC50: 0.1 µM
[3]
  IC50: > 1 µM
[4]
  IC50: 0.94 µM

## O=S(=O)(c1ccc(NC[C@H]2CC[C@H](c3nnn4cnc5[nH]ccc5c34)CC2)cc1)C(F)(F)F [compound 173, N-{[trans-4-(7H-pyrrolo[3,2-e][1,2,3]triazolo[1,5-c]pyrimidin-1-yl)cyclohexyl]methyl}-4-[(trifluoromethyl)sulfonyl]aniline]
[1]
  IC50: 0.46 µM
[2]
  IC50: 0.034 µM
[3]
  IC50: > 1 µM
[4]
  IC50: 0.26 µM

## c1ccc(CCNC[C@H]2CC[C@H](c3nnn4cnc5[nH]ccc5c34)CC2)cc1 [compound 174, N-{[trans-4-(7H-pyrrolo[3,2-e][1,2,3]triazolo[1,5-c]pyrimidin-1-yl)cyclohexyl]methyl}-2-phenylethanamine]
[1]
  IC50: 0.099 µM
[2]
  IC50: 0.0057 µM
[3]
  IC50: 0.61 µM
[4]
  IC50: 0.072 µM

## FC(F)(F)c1nc2cc(NC[C@H]3CC[C@H](c4nnn5cnc6[nH]ccc6c45)CC3)ccc2[nH]1 [compound 175, N-{[trans-4-(7H-pyrrolo[3,2-e][1,2,3]triazolo[1,5-c]pyrimidin-1-yl)cyclohexyl]methyl}-2-(trifluoromethyl)-1H-benzo[d]imidazol-5-amine]
[1]
  IC50: 0.045 µM
[2]
  IC50: 0.0056 µM
[3]
  IC50: 0.34 µM
[4]
  IC50: 0.0074 µM

## Clc1ccc(NC[C@H]2CC[C@H](c3nnn4cnc5[nH]ccc5c34)CC2)cc1 [compound 176, N-{[trans-4-(7H-pyrrolo[3,2-e][1,2,3]triazolo[1,5-c]pyrimidin-1-yl)cyclohexyl]methyl}-4-chloroaniline]
[1]
  IC50: > 1 µM
[2]
  IC50: 0.034 µM
[3]
  IC50: > 1 µM
[4]
  IC50: 0.19 µM

## Clc1ccc(CNC[C@H]2CC[C@H](c3nnn4cnc5[nH]ccc5c34)CC2)cc1 [compound 177, 1-[trans-4-(7H-pyrrolo[3,2-e][1,2,3]triazolo[1,5-c]pyrimidin-1-yl)cyclohexyl]-N-(4-chlorobenzyl)methanamine]
[1]
  IC50: 0.0028 µM
[2]
  IC50: 0.0029 µM
[3]
  IC50: 0.2 µM
[4]
  IC50: 0.031 µM

## Clc1ccc(CCNC[C@H]2CC[C@H](c3nnn4cnc5[nH]ccc5c34)CC2)cc1 [compound 178, N-{[trans-4-(7H-pyrrolo[3,2-e][1,2,3]triazolo[1,5-c]pyrimidin-1-yl)cyclohexyl]methyl}-2-(4-chlorophenyl)ethanamine]
[1]
  IC50: 0.053 µM
[2]
  IC50: 0.0026 µM
[3]
  IC50: 0.17 µM
[4]
  IC50: 0.024 µM

## Fc1ccc2c(c1)CCN2C[C@H]1CC[C@H](c2nnn3cnc4[nH]ccc4c23)CC1 [compound 179, 1-[trans-4-((5-fluoroindolin-1-yl)methyl)cyclohexyl]-7H-pyrrolo[3,2-e][1,2,3]triazolo[1,5-c]pyrimidine]
[1]
  IC50: > 1 µM
[2]
  IC50: 0.028 µM
[3]
  IC50: > 1 µM
[4]
  IC50: 0.094 µM

## N#CCCN(CCC#N)C[C@H]1CC[C@H](c2nnn3cnc4[nH]ccc4c23)CC1 [compound 180, 3,3′-({[trans-4-(7H-pyrrolo[3,2-e][1,2,3]triazolo[1,5-c]pyrimidin-1-yl)cyclohexyl]methyl}azanediyl)dipropanenitrile]
[1]
  IC50: 0.022 µM
[2]
  IC50: 0.0013 µM
[3]
  IC50: 0.03 µM
[4]
  IC50: 0.0019 µM

## CN(C)[C@H]1CCN(C[C@H]2CC[C@H](c3nnn4cnc5[nH]ccc5c34)CC2)C1 [compound 181, (S)-1-{[trans-4-(7H-pyrrolo[3,2-e][1,2,3]triazolo[1,5-c]pyrimidin-1-yl)cyclohexyl]methyl}-N,N-dimethylpyrrolidin-3-amine]
[1]
  IC50: 0.49 µM
[2]
  IC50: 0.024 µM
[3]
  IC50: > 1 µM
[4]
  IC50: 0.13 µM

## Cc1ccc(CNC[C@H]2CC[C@H](c3nnn4cnc5[nH]ccc5c34)CC2)o1 [compound 182, 1-[trans-4-(7H-pyrrolo[3,2-e][1,2,3]triazolo[1,5-c]pyrimidin-1-yl)cyclohexyl]-N-[(5-methylfuran-2-yl)methyl]methanamine]
[1]
  IC50: 0.016 µM
[2]
  IC50: 0.0054 µM
[3]
  IC50: 0.28 µM
[4]
  IC50: 0.039 µM

## Cc1cnc(CNC[C@H]2CC[C@H](c3nnn4cnc5[nH]ccc5c34)CC2)cn1 [compound 183, 1-[trans-4-(7H-pyrrolo[3,2-e][1,2,3]triazolo[1,5-c]pyrimidin-1-yl)cyclohexyl]-N-[(5-methylpyrazin-2-yl)methyl]methanamine]
[1]
  IC50: 0.041 µM
[2]
  IC50: 0.0061 µM
[3]
  IC50: 0.8 µM
[4]
  IC50: 0.055 µM

## C[C@H](O)CNC[C@H]1CC[C@H](c2nnn3cnc4[nH]ccc4c23)CC1 [compound 184, (S)-1-({[trans-4-(7H-pyrrolo[3,2-e][1,2,3]triazolo[1,5-c]pyrimidin-1-yl)cyclohexyl]methyl}amino)propan-2-ol]
[1]
  IC50: 0.087 µM
[2]
  IC50: 0.0035 µM
[3]
  IC50: 0.58 µM
[4]
  IC50: 0.042 µM

## C[C@@H](O)CNC[C@H]1CC[C@H](c2nnn3cnc4[nH]ccc4c23)CC1 [compound 185, (R)-1-({[trans-4-(7H-pyrrolo[3,2-e][1,2,3]triazolo[1,5-c]pyrimidin-1-yl)cyclohexyl]methyl}amino)propan-2-ol]
[1]
  IC50: 0.13 µM
[2]
  IC50: 0.0081 µM
[3]
  IC50: 0.32 µM
[4]
  IC50: 0.051 µM

## N#C[C@H]1CCN(C[C@H]2CC[C@H](c3nnn4cnc5[nH]ccc5c34)CC2)C1 [compound 187, (S)-1-{[trans-4-(7H-pyrrolo[3,2-e][1,2,3]triazolo[1,5-c]pyrimidin-1-yl)cyclohexyl]methyl}pyrrolidine-3-carbonitrile]
[1]
  IC50: 0.36 µM
[2]
  IC50: 0.0076 µM
[3]
  IC50: 0.37 µM
[4]
  IC50: 0.038 µM

## CS(=O)(=O)c1ccc2c(c1)CCN2C[C@H]1CC[C@H](c2nnn3cnc4[nH]ccc4c23)CC1 [compound 189, 1-(trans-4-{[5-(methylsulfonyl)indolin-1-yl]methyl}cyclohexyl)-7H-pyrrolo[3,2-e][1,2,3]triazolo[1,5-c]pyrimidine]
[1]
  IC50: 0.38 µM
[2]
  IC50: 0.011 µM
[3]
  IC50: 0.61 µM
[4]
  IC50: 0.038 µM
